Experimental findings from US10100050B2 (CHIESI FARMACEUTICI S.P.A., priority 2015, dated 2018) are described below.

One experiment has as its target T1, p38alpha (Homo sapiens, UniProt Q16539).
T1 construct: purchased Invitrogen PV3304
In words: P38alpha enzyme inhibition assay (Alphascreen kinase activity assay). It is filed as biochemical. Particulars: IC50 classes; 2 hours preincubation at 25° C., 250 μM ATP; read-out: p38α inhibition. On the procedure:
P38alpha Enzyme Inhibition Assay
The inhibitory activity of compounds was determined using an Alphascreen® (Perkin Elmer) based kinase activity assay. Kinase reactions consisted of 25 mM HEPES pH 7.5, 10 mM MgCl2, 100 μM Na3VO4, 2 mM DTT, 0.05 mg/ml Tween […] (Invitrogen, PV3304), 1% DMSO and 0.3 μg/ml ATF-2 fusion protein (New England Biolabs, 9224). Compounds were incubated under these conditions for 2 hours, at 25° C., prior to the initiation of the kinase activity by the addition of the 250 μM ATP. Reaction volumes were 20 uL. After 1 hr at 25° C. reactions were stopped by the adding 10 uL of 25 mM HEPES pH 7.5 containing 62.5 mM EDTA, 0.05% Triton X-100, 10% BSA and 0.83 ng/uL anti-phospho-ATF2 antibody (Abcam, ab28812). Detection was performed by measuring luminescence following the addition of Alphascreen Donor beads (Perkin Elmer 6765300) and Protein A Alphascreen Acceptor beads (Perkin Elmer 6760137), both at a final concentration of 20 ug/ml. IC50 values were determined from concentration-response curves.

For experiment [1], the system named is Peripheral Blood Mononuclear Cells (PBMCs). As to the kind of experiment: LPS-stimulated PBMC TNFα release assay. It is filed as cell-based. Particulars: IC50 classes; human PBMC, LPS 10 ng/ml, 18 h; read-out: LPS-stimulated PBMC TNFα release inhibition. The procedure:
1-10 nM ‘+’; • <1 nM ‘++’ LPS-Stimulated PBMC TNFα Release Assay
Peripheral Blood Mononuclear Cells (PBMCs) were isolated from healthy human volunteer blood using a standard density gradient centrifugation technique. Citrated blood was placed onto Histopaque™ and centrifuged. The PBMCs were removed from the density gradient interface and washed in phosphate buffered saline (PBS). The PBMCs were suspended in RPMI 1640 medium (without serum), dispensed into a 96-well plate and incubated at 37° C. for 3 h in a humidified incubator. After incubation, the medium was replaced (with medium containing 1% foetal bovine serum) and the plate incubated at 37° C., for 1 h, in the presence of test compound or the appropriate vehicle. LPS (10 ng/ml), or an appropriate vehicle control, was then added to the cells and the plate returned to the incubator for 18 h. Cell-free supernatants were removed and assayed for TNFα levels using MSD plates on the Sector Imager 6000 (MesoScale).
A dose response curve to each test compound was performed and the effect of compound in each experiment was expressed as a percentage inhibition of the control TNFα release. Dose response curves were plotted and compound potency (IC50) was determined. Compounds were tested in at least three separate experiments.

Another experiment concerns BEAS-2B cells. As to the kind of experiment: TNFα-stimulated BEAS-2B IL-8 release assay. Particulars: Homo sapiens, IC50 classes, TNF-α 10 ng/ml, 18 h, read-out: TNFα-stimulated BEAS-2B IL-8 release inhibition. It is filed as cell-based. The procedure:
TNFα-Stimulated BEAS-2B IL-8 Release Assay
Human bronchial epithelial cell line BEAS-2B was purchased from Sigma (St. Louis, Mo.). BEAS-2B cells were cultured in Bronchial Epithelial cell Growth Medium (BEGM), prepared by supplementing Bronchial Epithelial Basal Medium with SingleQuotes™ (Lonza, Switzerland), which contains retinoic acid, epidermal growth factor, epinephrine, transferrin, triiodothyronin, insulin, hydrocortisone, antimicrobial agents, and bovine pituitary extract. In addition, BEGM medium was supplemented with 2 mM glutamine, 100 U penicillin and 100 μg/ml streptomycin (Life Technologies), in an atmosphere of 95% air and 5% CO2 at 37° C.
BEAS-2B were seeded in 48-well plates at the density of 3×10^4 cells per well, grown to approximately 80-90% confluence. Cells were pre-incubated with p38 inhibitors for 1 hour and then stimulated with TNF-α (10 ng/ml) for 18 h at 37° C. with 5% CO2. Subsequently, supernatants were collected and used for measuring IL-8 levels using a paired antibody quantitative ELISA kit purchased from Life Technologies (detection limit: […]). All the treatments were performed at least in quadruplicate.
A concentration-response curve to each test compound was performed and the effect of compound in each experiment was expressed as a percentage inhibition of the control IL-8 release. Compound potency (IC50) was calculated by the analysis of the sigmoidal dose-response curve (variable slope) elaborated by Graph Pad PRISM4 program.

Molecules are shown by their SMILES. pIC50: −log10 of the molar value. Structures can show the parent of a compound that is named as a salt. Bounds are passed on as bounds.

T1 sequence (Q16539 whole entry): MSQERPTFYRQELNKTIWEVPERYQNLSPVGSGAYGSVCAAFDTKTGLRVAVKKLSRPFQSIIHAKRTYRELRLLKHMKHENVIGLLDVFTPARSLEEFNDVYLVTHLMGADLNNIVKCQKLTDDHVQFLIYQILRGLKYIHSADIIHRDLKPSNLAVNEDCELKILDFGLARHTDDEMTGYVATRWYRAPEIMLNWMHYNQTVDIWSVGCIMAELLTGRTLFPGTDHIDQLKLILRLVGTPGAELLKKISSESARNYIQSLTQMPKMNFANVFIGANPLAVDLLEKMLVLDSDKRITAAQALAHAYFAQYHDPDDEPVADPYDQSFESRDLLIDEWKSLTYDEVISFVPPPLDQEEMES

As for `CN1CCC[C@@H](c2nnc3ccc(O[C@@H]4CC[C@H](NC(=O)Nc5cc(NS(C)(=O)=O)cc(C(C)(C)C)c5)c5ccccc54)cn23)C1` [Example 30, N-[3-tert-Butyl-5-(3-{(1S,4R)-4-[3-((R)-1-methyl-piperidin-3-yl)-[1,2,4]triazolo[4,3-a]pyridin-6-yloxy]-1,2,3,4-tetrahydro-naphthalen-1-yl}-ureido)-phenyl]-methanesulfonamide], the values for the pIC50 (at p38alpha; in experiment [1]) were 8.00 to 9.00 and less than 8.30, respectively.
The matching figures for `COc1c(NC(=O)N[C@H]2CC[C@@H](Oc3ccc4nnc([C@@H]5CCCN5C)n4c3)c3ccccc32)cc(C(C)(C)C)cc1N(CCO)S(C)(=O)=O` [Example 17, N-[5-tert-Butyl-2-methoxy-3-(3-{(1S,4R)-4-[3-((S)-1-methyl-pyrrolidin-2-1)-[1,2,4]triazolo[4,3-a]pyridin-6-yloxy]-1,2,3,4-tetrahydro-naphthalen-1-yl}-ureido)-phenyl]-N-(2-hydroxy-ethyl)-methanesulfonamide formate salt]: 8.00 to 9.00 and less than 8.30.
For the compound `CN1CCC[C@@H]1c1nnc2ccc(O[C@@H]3CC[C@H](NC(=O)Nc4cc(NS(C)(=O)=O)cc(C(C)(C)C)c4)c4ccccc43)cn12` [Example 22], the figures for the pIC50 (at p38alpha; in experiment [1]) were greater than 9.00 and 8.30 to 9.00, respectively.
`COC(=O)c1cc(NC(=O)N[C@H]2CC[C@@H](Oc3ccc4nnc([C@]5(C)CCCN5C)n4c3)c3ccccc32)cc(C(C)(C)C)c1` [Example 41, 3-tert-Butyl-5-(3-{(1S,4R)-4-[3-((S)-1,2-dimethyl-pyrrolidin-2-yl)-[1,2,4]triazolo[4,3-a]pyridin-6-yloxy]-1,2,3,4-tetrahydro-naphthalen-1-yl}-ureido)-benzoic acid methyl ester]: the pIC50 at p38alpha is 8.00 to 9.00; in the experiment with BEAS-2B cells it was greater than 9.52.
Consider `CN1CCC[C@H]1c1nnc2ccc(O[C@@H]3CC[C@H](NC(=O)Nc4cc(C(N)=O)cc(C(C)(C)C)c4)c4ccccc43)cn12` [Example 52, 3-tert-Butyl-5-(3-{(1S,4R)-4-[3-((S)-1-methyl-pyrrolidin-2-yl)-[1,2,4]triazolo[4,3-a]pyridin-6-yloxy]-1,2,3,4-tetrahydro-naphthalen-1-yl}-ureido)-benzamide], for which the pIC50 at p38alpha is greater than 9.00; in experiment [1], 8.30 to 9.00.
For the compound `COc1c(NC(=O)N[C@H]2CC[C@@H](Oc3ccc4nnc(N5CCCCC5)n4c3)c3ccccc32)cc(C(C)(C)C)cc1N(CCN(C)C)S(C)(=O)=O` [Example 60, N-(5-tert-Butyl-2-methoxy-3-{3-[(1S,4R)-4-(3-piperidin-1-yl-[1,2,4]triazolo[4,3,a]pyridin-6-yloxy)-1,2,3,4-tetrahydro-naphthalen-1-yl]-ureido}-phenyl-N-(2-dimethylamino-ethyl)-methanesulfonamide formate salt], the pIC50 was 8.00 to 9.00 on p38alpha and less than 8.30 in experiment [1].
The matching figures for `CN1CCC[C@H]1c1nnc2ccc(O[C@@H]3CC[C@H](NC(=O)Nc4cc(C(=O)NCCO)cc(C(C)(C)C)c4)c4ccccc43)cn12` [Example 50, 3-tert-Butyl-N-(2-hydroxy-ethyl)-5-(3-{(1S,4R)-4-[3-((S)-1-methyl-pyrrolidin-2-yl)-[1,2,4]triazolo[4,3-a]pyridin-6-yloxy]-1,2,3,4-tetrahydro-naphthalen-1-yl}-ureido)-benzamide]: greater than 9.00 and less than 8.30.
Regarding `CC(C)N1CCC[C@@]1(C)c1nnc2ccc(O[C@@H]3CC[C@H](NC(=O)Nc4cc(NS(C)(=O)=O)cc(C(C)(C)C)c4)c4ccccc43)cn12` [Example 28, N-[3-tert-Butyl-5-(3-{(1S,4R)-4-[3-((S)-1-isopropyl-2-methyl-pyrrolidin-2-yl)-[1,2,4]triazolo[4,3-a]pyridin-6-yloxy]-1,2,3,4-tetrahydro-naphthalen-1-yl}-ureido)-phenyl]-methanesulfonamide], the pIC50 at p38alpha is greater than 9.00; in experiment [1] it was 8.30 to 9.00.
The matching figures for `COC(=O)c1cc(NC(=O)N[C@H]2CC[C@@H](Oc3ccc4nnc([C@@H]5CCCN5C)n4c3)c3ccccc32)cc(C(C)(C)C)c1` [Example 40, 3-tert-Butyl-5-(3-{(1S,4R)-4-[3((S)-1-methyl-pyrrolidin-2-yl)-[1,2,4]triazolo[4,3-a]pyridin-6-yloxy]-1,2,3,4-tetrahydro-naphthalen-1-yl}-ureido)-benzoic acid methyl ester]: greater than 9.00 and 8.30 to 9.00.
The matching figures for `CN1CCC[C@@]1(C)c1nnc2ccc(O[C@@H]3CC[C@H](NC(=O)Nc4cc(N5CCOCC5)cc(C(C)(C)C)c4)c4ccccc43)cn12` [Example 48, 1-(3-tert-Butyl-5-morpholin-4-yl-phenyl)-3-{(1S,4R)-4-[3-((S)-1,2-dimethyl-pyrrolidin-2-yl)-[1,2,4]triazolo[4,3-a]pyridin-6-yloxy]-1,2,3,4-tetrahydro-naphthalen-1-yl}-urea]: greater than 9.00 and greater than 9.00.
The matching figures for `CC(C)(C)c1cc(NC(=O)N[C@H]2CC[C@@H](Oc3ccc4nnc([C@]5(C)CCCN5)n4c3)c3ccccc32)cc(NS(C)(=O)=O)c1` [Example 29, N-[3-tert-Butyl-5-(3-{(1S,4R)-4-[3-((S)-2-methyl-pyrrolidin-2-yl)-[1,2,4]triazolo[4,3-a]pyridin-6-yloxy]-1,2,3,4-tetrahydro-naphthalen-1-yl}-ureido)-phenyl]-methanesulfonamide]: greater than 9.00 and 8.30 to 9.00.
In the case of `CN(C)C(C)(C)c1nnc2ccc(O[C@@H]3CC[C@H](NC(=O)Nc4cc(N)cc(C(C)(C)C)c4)c4ccccc43)cn12` [Example 34], the pIC50 (at p38alpha; in experiment [1]) was greater than 9.00 throughout.
Turning to `CC(C)(C)c1cc(NC(=O)N[C@H]2CC[C@@H](Oc3ccc4nnc([C@]5(C)CCCN5CCO)n4c3)c3ccccc32)cc(NS(C)(=O)=O)c1` [Example 32, N-{3-tert-Butyl-5-[3-((1S,4R)-4-{3-[(S)-1-(2-hydroxy-ethyl)-2-methyl-pyrrolidin-2-yl]-[1,2,4]triazolo[4,3-a]pyridin-6-yloxy}-1,2,3,4-tetrahydro-naphthalen-1-yl)-ureido]-phenyl}-methanesulfonamide], the values for the pIC50 (on p38alpha; in experiment [1]) were greater than 9.00 and 8.30 to 9.00, respectively.
Consider `CC(C)N1CCCC[C@H]1c1nnc2ccc(O[C@@H]3CC[C@H](NC(=O)Nc4cc(NS(C)(=O)=O)cc(C(C)(C)C)c4)c4ccccc43)cn12` [Example 23], for which the results for the pIC50 (on p38alpha; in experiment [1]) were 8.00 to 9.00 and less than 8.30, respectively.
The matching figures for `CN1CC(C)(C)C[C@H]1c1nnc2ccc(O[C@@H]3CC[C@H](NC(=O)Nc4cc(NS(C)(=O)=O)cc(C(C)(C)C)c4)c4ccccc43)cn12` [Example 26, N-[3-tert-Butyl-5-(3-{(1S,4R)-4-[3-((S)-1,4,4-trimethyl-pyrrolidin-2-yl)-[1,2,4]triazolo[4,3-a]pyridin-6-yloxy]-1,2,3,4-tetrahydro-naphthalenyl}-ureido)-phenyl]-methanesulfonamide]: 8.00 to 9.00 and 8.30 to 9.00.
